Laboratory results: PMC12736563, “NMR Unveils Activity Mechanism of Linear Spider Venom Peptide Fragments Selected by Neural Networks Against Staphylococci Including MRSA” (Pharmaceutics, 2025)
In brackets after ≈: the same amount, converted by molar mass. Entries after “also recorded” stand apart in the source; their conditions may differ. Where two headings read alike, the source gives them in different places. Ends that are not written are not given here.

B1: Peptide IX (N-terminal 13-residue fragment of Lycosin 9i) (Lycosa hispanica) (peptide)
chain: IWLSLMKFAGKHL

How the values were obtained:
[1] = tested on: S. epidermidis ATCC 14990; experiment: microbe, parasite or virus in culture; assay type: cell-based, Staphylococcus epidermidis; conditions: ~1 × 10^5 cells/mL, starting 200 μg/mL
Method: (§1) For antimicrobial activity determination, Gram-positive strains (Staphylococcus aureus 209P, ATCC 29213, ATCC 25923, ATCC 43300 [MRSA], S. epidermidis ATCC 14990) were used. Experiments were conducted at bacterial concentrations of (0.5–1) × 10^5 cells/mL. […] Briefly, overnight cultures in Mueller-Hinton broth (MHB, HiMedia, Mumbai, Maharashtra, India) were diluted 1:100 into fresh MHB and incubated at 37 °C for 3 h. Cultures were then adjusted to ~1 × 10^5 cells/mL (by OD600) and used as an inoculate. Peptide stocks (10 mg/mL in water) were prepared in MHB to achieve a starting concentration of 200 μg/mL and subsequently diluted twofold.

[2] = tested on: S. aureus ATCC 25923; experiment: microbe, parasite or virus in culture; assay type: cell-based, Staphylococcus aureus; conditions: ~1 × 10^5 cells/mL, starting 200 μg/mL
Method: as §1

[3] = tested on: S. aureus ATCC 29213 (MSSA); experiment: microbe, parasite or virus in culture; assay type: cell-based, Staphylococcus aureus; conditions: two-fold serial dilution in MHB, ~1 × 10^5 cells/mL, starting 200 μg/mL
Method: as §1

[4] = tested on: S. aureus ATCC 43300 (MRSA); experiment: microbe, parasite or virus in culture; assay type: cell-based, Staphylococcus aureus
Method: as §1

[5] = tested on: human red blood cells; experiment: Hemolytic activity; assay type: cell-based; conditions: for Hemolysis (%): fresh human capillary blood, two independent experiments; for Hemolytic activity (in words): human red blood cells, up to 100 μM
Method: Hemolytic activity was assessed using fresh capillary blood from a human volunteer, as described in [28]. Each peptide’s hemolytic activity was tested in two independent experiments.

[6] = tested on: E. coli, lptD; experiment: microbe, parasite or virus in culture; assay type: cell-based
[7] = tested on: E. coli, ΔtolC; experiment: microbe, parasite or virus in culture; assay type: cell-based
[8] = tested on: E. coli, ATCC 25922; experiment: microbe, parasite or virus in culture; assay type: cell-based
[9] = Solubility in water (statement); assay type: physicochemical; conditions: aqueous solution; NMR samples 0.2–1.0 mM
[10] = pKa of His12 side chain by NMR pH titration; assay type: physicochemical
Method: NMR experiments in aqueous and micellar solutions were performed using samples containing 0.2–1.0 mM of peptide IX in 5% D2O at pH of 4.5. To model a membrane environment, 1-palmitoyl-2-hydroxy-sn-glycero-3-phospho-(1′-rac-glycerol) (LPPG, 16:0 Lyso PG, Avanti, Alabaster, AL, USA) was added stepwise to the aqueous peptide IX sample using a concentrated stock solution until a detergent-to-peptide (D:P) molar ratio of 140:1 was achieved. The NMR spectra were acquired on a Bruker Avance III 800 MHz spectrometer (Karlsruhe, Germany) equipped with a room-temperature triple-resonance (^1H, ^13C, ^15N) probe. Almost complete ^1H, ^13C, and ^15N resonance assignments for peptide IX in aqueous solution and LPPG micelles were obtained via a combination of 2D ^1H-TOCSY (τm = 60 ms), ^1H-NOESY (τm = 150 ms) and natural abundance ^13C-HSQC and ^15N-HSQC spectra measured at 5 °C and 45 °C, respectively, using the CARA 1.9.1.7 software (http://cara.nmr.ch/doku.php/Home (accessed on 12 December 2024)). […] The temperature gradients of amide protons (∆δ^1H^N/∆T) were measured from a series of 2D TOCSY spectra in water and 2D NOESY spectra in LPPG acquired in the temperature range of 15–45 °C. The pH-dependences of the ^1H^N and ^1H^δ2 His12 chemical shifts were measured in the pH range 2–9 from a series of 2D TOCSY spectra in water at 30 °C and 2D NOESY spectra in LPPG micelles at 45 °C. […]

[11] = tested on: S. aureus 209P cells; experiment: Confocal microscopy of plasma membrane permeability to BCECF and PI; assay type: cell-based, Staphylococcus aureus; conditions: 25 µM peptide, 15 min, Mueller–Hinton broth, CLSM
Method: Confocal laser scanning microscopy (CLSM) measurements were performed with an SP2 confocal inverted microscope (Leica Microsystems GmbH, Wetzlar, Germany) using the water-immersion 63×, 1.2 NA HCX PL APO objective. A typical voxel size was 0.15 × 0.15 × 0.9 μm. Excitation wavelengths were 561 nm for propidium iodide (PI) and 488 nm for 2′,7′-Bis-(2-carboxyethyl)-5-(and-6)-carboxyfluorescein (BCECF) (Sigma-Aldrich, MO, USA). Laser power was 3–10 μW the sample. Fluorescence was detected in the 500–550 and 650–700 nm ranges for BCECF and PI, respectively. S. aureus 209P cells were preincubated with acetoxymethyl ester of BCECF (10 μM) in Hank’s balanced salt solution for 30 min at 37 °C, exposed to PI (15 μM) and peptide XIII (25 μM) for 15 min in Mueller–Hinton broth, centrifuged gently in order to concentrate the cells (1600× g, 5 min, 20 °C), and examined by CLSM. Control cells were subjected to the same procedures but without addition of the peptide.

[12] = tested on: S. aureus 209P; experiment: MIC, two-fold serial dilution in Mueller-Hinton broth; assay type: cell-based, Staphylococcus aureus; conditions: conditions identical to those of Figure 2
Method: as §1
The mechanism was investigated using the S. aureus 209P strain.

[13] = target: His12 (position 12, KFAGKHL----); experiment: NMR
[14] = two-fold serial dilution in MHB, values in Figure 2
[15] = two-fold serial dilution in MHB, Figure 2
[16] = S. aureus ATCC 43300 (MRSA), two-fold serial dilution in MHB, ~1 × 10^5 cells/mL, starting 200 μg/mL, Figure 2

Row | Molecule | MIC [1, 14] | MIC [2, 15] | MIC ([3]; Figure 2) | MIC [4, 16] | further results
1 | IWWTAVKFFGKQL-NH2 [XV, 13-residue fragment of Lycosin 9o from Lycosa hispanica; negative control in hemolysis] | > 200.00 mg/L | > 200.00 mg/L | > 200.00 mg/L | > 200.00 mg/L | Hemolysis (%) ([5]; 25 μM peptide): 0%; Hemolysis (%) ([5]; 50 μM peptide): 0%; Hemolysis (%) ([5]; 100 μM peptide): 0%; Hemolytic activity (in words) [5]: lack of hemolytic activity
2 | IWLSLMKFAGKHL [X] | > 200.00 mg/L | > 200.00 mg/L | > 200.00 mg/L | > 200.00 mg/L | –
3 | AIWSSAMQFFIKHLKK [III] | > 200.00 mg/L | > 200.00 mg/L | > 200.00 mg/L | > 200.00 mg/L | –
4 | LSLMKFAGKHLAKH-NH2 [VIII] | > 200.00 mg/L | > 200.00 mg/L | > 200.00 mg/L | > 200.00 mg/L | –
5 | CN[C@H](CC(C)C)C(=O)N[C@H]1C(=O)N[C@@H](CC(N)=O)C(=O)N[C@H]2C(=O)N[C@H]3C(=O)N[C@H](C(=O)N[C@H](C(=O)O)c4cc(O)cc(O)c4-c4cc3ccc4O)[C@H](O)c3ccc(c(Cl)c3)Oc3cc2cc(c3O[C@@H]2O[C@H](CO)[C@@H](O)[C@H](O)[C@H]2O[C@H]2C[C@](C)(N)[C@H](O)[C@H](C)O2)Oc2ccc(cc2Cl)[C@H]1O [vancomycin, reference compound] | – | – | – | – | MIC ([1]; Staphylococcus epidermidis, ATCC14990, two-fold serial dilution in MHB, values in Figure 2, read-out: MIC): 0.78 mg/L (≈ 0.538 µM); MIC ([2]; Staphylococcus aureus, ATCC25923, two-fold serial dilution in MHB, Figure 2, read-out: MIC): 3.12 mg/L (≈ 2.15 µM); MIC ([3]; Staphylococcus aureus, Figure 2, read-out: MIC): 0.78 mg/L (≈ 0.538 µM); MIC ([4]; Staphylococcus aureus): 1.56 mg/L (≈ 1.08 µM)
6 | LSLMKFAGKHLAKHQL [VII] | 25.00 mg/L | > 200.00 mg/L | > 200.00 mg/L | > 200.00 mg/L | MIC ([6]; E. coli, lptD): 12.5 mg/L; MIC ([7]; E. coli, ΔtolC): >200 mg/L; MIC [8]: >200 mg/L
7 | LMKFAGKHLAKH-NH2 [XI] | > 200.00 mg/L | > 200.00 mg/L | > 200.00 mg/L | > 200.00 mg/L | –
8 | IWLSLMKFAGKHL-NH2 [IX] | 12.50 mg/L | 25.00 mg/L | 25.00 mg/L | 25.00 mg/L | MIC ([6]; E. coli, lptD): 50 mg/L; solubility in water (in words) [9]: water-soluble; MIC ([7]; E. coli, ΔtolC): 200 mg/L; pKa of His12 side chain ([10]; LPPG micelles, D:P 140:1, 2D NOESY at 45 °C): 7.86 ± 0.24; pKa of His12 side chain ([10]; aqueous solution, 5% D2O, 2D TOCSY at 30 °C, pH range of 3–8): 6.02 ± 0.05; Hemolysis (%) ([5]; 25 μM peptide): 0%; Hemolysis (%) ([5]; 50 μM peptide): 14%; Hemolysis (%) ([5]; 100 μM peptide): 100%; MIC [8]: >200 mg/L
9 | FMKRLISKGKIGKEKLVAF [II] | > 200.00 mg/L | > 200.00 mg/L | > 200.00 mg/L | > 200.00 mg/L | –
10 | KFAGKHLAKH-NH2 [XII] | > 200.00 mg/L | > 200.00 mg/L | > 200.00 mg/L | > 200.00 mg/L | –
11 | SLMKFAGKHLAKHQLSKMG-NH2 [VI] | > 200.00 mg/L | > 200.00 mg/L | > 200.00 mg/L | > 200.00 mg/L | –
12 | GWMKALKEHVEKLNKTGKLK [I] | > 200.00 mg/L | > 200.00 mg/L | > 200.00 mg/L | > 200.00 mg/L | –
13 | CC1(C)S[C@@H]2[C@H](NC(=O)[C@H](N)c3ccccc3)C(=O)N2[C@H]1C(=O)O [Ampicillin, reference compound] | – | – | – | – | MIC ([8]; Escherichia coli, ATCC25922, read-out: MIC): 3.12 mg/L (≈ 8.94 µM)
14 | IIWLPVLKFLASHV-NH2 [XIV] | 6.25 mg/L | 25.00 mg/L | 12.50 mg/L | 12.50 mg/L | MIC ([6]; E. coli, lptD): 100 mg/L; MIC ([7]; E. coli, ΔtolC): >200 mg/L; Hemolysis (%) ([5]; 25 μM peptide): 0%; Hemolysis (%) ([5]; 50 μM peptide): 60%; Hemolysis (%) ([5]; 100 μM peptide): 100%; MIC [8]: 200 mg/L
15 | ILADLIAKLKVRAA-NH2 [V] | > 200.00 mg/L | > 200.00 mg/L | > 200.00 mg/L | > 200.00 mg/L | –
16 | FWFKALKSVAKFIA-NH2 [XIII] | 6.25 mg/L | 6.25 mg/L | 3.12 mg/L | 6.25 mg/L | MIC ([6]; E. coli, lptD): 100 mg/L; MIC ([7]; E. coli, ΔtolC): 50 mg/L; entry of propidium iodide (PI) into cells [11]: PI penetrates into cells; leakage of BCECF from cells [11]: is released from them; MIC [12]: 6.25 mg/L; Hemolysis (%) ([5]; 25 μM peptide): 0%; Hemolysis (%) ([5]; 50 μM peptide): 0%; Hemolysis (%) ([5]; 100 μM peptide): 0%; Hemolytic activity (in words) [5]: minimal hemolytic activity; also recorded: lack of hemolysis; MIC [8]: 50 mg/L
17 | CCn1cc(C(=O)O)c(=O)c2ccc(C)nc21 [Nalidixic acid, reference compound] | – | – | – | – | MIC ([6]; Escherichia coli): 1.56 mg/L (≈ 6.72 µM); MIC ([7]; Escherichia coli): 1.56 mg/L (≈ 6.72 µM)
18 | B1 | – | – | – | – | pKa ([13]; 30 °C, free peptide in aqueous solution, disordered (random coil), 1 mM): 6.02±0.05; pKa ([13]; 45 °C, bound to anionic LPPG micelles, structured (helix-like Ile1-Met6, α-helix Lys7-Leu13)): 7.89 ± 0.24
